These are literature values, as cited in patent EP2527351B1, “Lipophosphonoxins, method of their preparation and use” (priority 2011, dated 2012).

This data set deals with Mycobacterium tuberculosis strains. As to conditions: multidrug-resistant strains, in vitro; cited from earlier work.

On to caprazamycins [CPZs], for which the MIC (commonly the least concentration at which growth counts as inhibited) is given as 3.13 µg/mL.
